Data published in PubChem BioAssay AID328 (DTP/NCI, 2004).
Inconclusive results and toxic doses are left out.

Test system: BDF1 mice, P388 leukemia ip, median survival T/C
Assay: NCI In Vivo Anticancer Drug Screen. Data for tumor model P388 Leukemia (intraperitoneal) in B6D2F1 (BDF1) mice
Settings: endpoint: median survival time, higher = longer survival
Method in brief: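 Reported as T/C, where T is the survival measurement in dosed animals and C the same measurement in vehicle controls.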

[1] = dose: 100.0 mg/kg/injection, schedule: Q04DX003 (ip), vehicle: Klucel (hydroxypropylcellulose) (HPC)
[2] = dose: 200.0 mg/kg/injection, schedule: Q04DX003 (ip), vehicle: Klucel (hydroxypropylcellulose) (HPC)
[3] = dose: 100.0 mg/kg/injection, schedule: Q01DX009 (ip), vehicle: saline with Tween-80
[4] = dose: 200.0 mg/kg/injection, schedule: Q01DX009 (ip), vehicle: saline with Tween-80

## CCCCN1C(=O)C2CC=C3C=CN4C(C3C2C1=O)C1C(=O)N(CCCC)C(=O)C1C41CC(=O)N(CCCC)C1=O (configuration not stated)
dose: 50.0 mg/kg/injection, schedule: Q01DX009 (ip), vehicle: Klucel (hydroxypropylcellulose) (HPC)
  T/C: 104 % of control
dose: 100.0 mg/kg/injection, schedule: Q01DX009 (ip), vehicle: Klucel (hydroxypropylcellulose) (HPC)
  T/C: 100 % of control
[1]
  T/C: 100 % of control
dose: 200.0 mg/kg/injection, schedule: Q01DX009 (ip), vehicle: Klucel (hydroxypropylcellulose) (HPC)
  T/C: 90 % of control
[2]
  T/C: 91 % of control

## COC1OC(CNC(=O)N(C)N=O)C(O)C(O)C1O (configuration not stated)
dose: 100.0 mg/kg/injection, schedule: Q01DX009 (ip), vehicle: saline
  T/C: 164 % of control
dose: 200.0 mg/kg/injection, schedule: Q01DX009 (ip), vehicle: saline
  T/C: 240 % of control
dose: 266.0 mg/kg/injection, schedule: Q04DX003 (ip), vehicle: saline
  T/C: 154 % of control
dose: 400.0 mg/kg/injection, schedule: Q01DX009 (ip), vehicle: saline
  T/C: 309 % of control
dose: 400.0 mg/kg/injection, schedule: Q04DX003 (ip), vehicle: saline
  T/C: 162 % of control
dose: 600.0 mg/kg/injection, schedule: Q04DX003 (ip), vehicle: saline
  T/C: 216 % of control

## CC(=O)C1=CC(=O)NC(=O)C1C(=O)CC(C)C (configuration not stated)
dose: 1.56 mg/kg/injection, schedule: Q01DX009 (ip), vehicle: saline + alcohol
  T/C: 115 % of control
dose: 3.13 mg/kg/injection, schedule: Q01DX009 (ip), vehicle: saline + alcohol
  T/C: 123 % of control
dose: 6.25 mg/kg/injection, schedule: Q01DX009 (ip), vehicle: other
  T/C: 118 % of control
dose: 6.25 mg/kg/injection, schedule: Q01DX009 (ip), vehicle: saline + alcohol
  T/C: 106 % of control

## CCOC(=O)c1c(N)sc2c1CCN(Cc1ccccc1)C2
[3]
  T/C: 104 % of control
dose: 100.0 mg/kg/injection, schedule: Q04DX003 (ip), vehicle: saline with Tween-80
  T/C: 100 % of control
[4]
  T/C: 95 % of control
dose: 200.0 mg/kg/injection, schedule: Q04DX003 (ip), vehicle: saline with Tween-80
  T/C: 104 % of control
dose: 400.0 mg/kg/injection, schedule: Q01DX009 (ip), vehicle: saline with Tween-80
  T/C: 119 % of control
dose: 400.0 mg/kg/injection, schedule: Q04DX003 (ip), vehicle: saline with Tween-80
  T/C: 109 % of control

## CCCCCC#CC(=O)O
dose: 50.0 mg/kg/injection, schedule: Q01DX009 (ip), vehicle: saline with Tween-80
  T/C: 99 % of control
[3]
  T/C: 100 % of control
[4]
  T/C: 90 % of control

## Cc1ccc(C(=O)CC(O)(C(F)(F)F)C(F)(F)F)cc1
dose: 100.0 mg/kg/injection, schedule: Q01DX009 (ip), vehicle: other
  T/C: 100 % of control
dose: 200.0 mg/kg/injection, schedule: Q01DX009 (ip), vehicle: other
  T/C: 95 % of control
dose: 400.0 mg/kg/injection, schedule: Q01DX009 (ip), vehicle: other
  T/C: 121 % of control

## O/N=C(\C[n+]1ccccc1)c1ccc2ccccc2c1
dose: 1.56 mg/kg/injection, schedule: Q01DX009 (ip), vehicle: Klucel (hydroxypropylcellulose) (HPC)
  T/C: 113 % of control
dose: 3.12 mg/kg/injection, schedule: Q01DX009 (ip), vehicle: Klucel (hydroxypropylcellulose) (HPC)
  T/C: 120 % of control
dose: 3.12 mg/kg/injection, schedule: Q01DX009 (ip), vehicle: saline
  T/C: 107 % of control
dose: 6.25 mg/kg/injection, schedule: Q01DX009 (ip), vehicle: Klucel (hydroxypropylcellulose) (HPC)
  T/C: 122 % of control
dose: 6.25 mg/kg/injection, schedule: Q01DX009 (ip), vehicle: saline
  T/C: 120 % of control
dose: 50.0 mg/kg/injection, schedule: Q01DX009 (ip), vehicle: saline
  T/C: 106 % of control

## NC1=NCC(CSc2ccc(Cl)c(Cl)c2)O1 (configuration not stated)
dose: 50.0 mg/kg/injection, schedule: Q04DX002 (ip), vehicle: saline + Tween-80 + alcohol
  T/C: 95 % of control
dose: 100.0 mg/kg/injection, schedule: Q04DX002 (ip), vehicle: saline + Tween-80 + alcohol
  T/C: 101 % of control
dose: 200.0 mg/kg/injection, schedule: Q04DX002 (ip), vehicle: saline + Tween-80 + alcohol
  T/C: 95 % of control

## O=C(O)C1CC2c3ccccc3C1c1ccccc12 (configuration not stated)
[1]
  T/C: 90 % of control
[2]
  T/C: 95 % of control
dose: 400.0 mg/kg/injection, schedule: Q04DX003 (ip), vehicle: Klucel (hydroxypropylcellulose) (HPC)
  T/C: 109 % of control

## NC(=S)N/N=C/c1ccccn1
dose: 1.0 mg/kg/injection, schedule: Q01DX010 (ip), vehicle: carboxymethylcellulose (CMC)
  T/C: 110 % of control
dose: 2.0 mg/kg/injection, schedule: Q01DX010 (ip), vehicle: carboxymethylcellulose (CMC)
  T/C: 110 % of control
dose: 30.0 mg/kg/injection, schedule: Q01DX010 (ip), vehicle: saline
  T/C: 112 % of control
